Measured values as given in PubChem BioAssay (NCI).
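Grown in 96-well plates, cells were treated for 48 hours with each compound at five concentrations. Insufficient inhibition: endpoint recorded as highest concentration tested. TGI: total growth inhibition.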

Tests used:
Assay in all cases: NCI-60 cell line screen, 48 h
MDA-MB-231 breast = tested on: MDA-MB-231 breast
K-562 leukemia = tested on: K-562 leukemia
CAKI-1 renal = tested on: CAKI-1 renal
HOP-62 NSCLC = tested on: HOP-62 NSCLC
786-0 renal = tested on: 786-0 renal
SW-620 colon = tested on: SW-620 colon
SNB-75 CNS = tested on: SNB-75 CNS
IGROV1 ovarian = tested on: IGROV1 ovarian
NCI-H460 lung = tested on: NCI-H460 lung
OVCAR-3 ovarian = tested on: OVCAR-3 ovarian
RPMI-8226 leukemia = tested on: RPMI-8226 leukemia
HS 578T breast = tested on: HS 578T breast
SNB-19 CNS = tested on: SNB-19 CNS
NCI/ADR-RES ovarian = tested on: NCI/ADR-RES ovarian
M14 melanoma = tested on: M14 melanoma
HCT-116 colon = tested on: HCT-116 colon
NCI-H226 lung = tested on: NCI-H226 lung
HT29 colon = tested on: HT29 colon
COLO 205 colon = tested on: COLO 205 colon
NCI-H23 lung = tested on: NCI-H23 lung
OVCAR-5 ovarian = tested on: OVCAR-5 ovarian
HCT-15 colon = tested on: HCT-15 colon
NCI-H522 lung = tested on: NCI-H522 lung
CCRF-CEM leukemia = tested on: CCRF-CEM leukemia
U251 CNS = tested on: U251 CNS
HOP-92 NSCLC = tested on: HOP-92 NSCLC
RXF 393 renal = tested on: RXF 393 renal
ACHN renal = tested on: ACHN renal
PC-3 prostate = tested on: PC-3 prostate
LOX IMVI melanoma = tested on: LOX IMVI melanoma
UO-31 renal = tested on: UO-31 renal
A549 NSCLC = tested on: A549 NSCLC
A498 renal = tested on: A498 renal
HL-60(TB) leukemia = tested on: HL-60(TB) leukemia
TK-10 renal = tested on: TK-10 renal
SF-295 CNS = tested on: SF-295 CNS
MDA-N = tested on: MDA-N
OVCAR-8 ovarian = tested on: OVCAR-8 ovarian
SK-MEL-5 melanoma = tested on: SK-MEL-5 melanoma
OVCAR-4 ovarian = tested on: OVCAR-4 ovarian
T-47D breast = tested on: T-47D breast
SN12C renal = tested on: SN12C renal
SF-539 CNS = tested on: SF-539 CNS
UACC-62 melanoma = tested on: UACC-62 melanoma
SF-268 CNS = tested on: SF-268 CNS
MOLT-4 leukemia = tested on: MOLT-4 leukemia
UACC-257 melanoma = tested on: UACC-257 melanoma
DU-145 prostate = tested on: DU-145 prostate
MALME-3M melanoma = tested on: MALME-3M melanoma
HCC-2998 colon = tested on: HCC-2998 colon
MDA-MB-435 = tested on: MDA-MB-435
SK-MEL-28 melanoma = tested on: SK-MEL-28 melanoma
EKVX NSCLC = tested on: EKVX NSCLC
SK-OV-3 ovarian = tested on: SK-OV-3 ovarian
SK-MEL-2 melanoma = tested on: SK-MEL-2 melanoma
SR leukemia = tested on: SR leukemia
MCF7 breast = tested on: MCF7 breast
KM12 colon = tested on: KM12 colon

Measured: TGI

CCCCCCCCOCC1S(=O)(=O)OCCOS1(=O)=O
not listed: MCF7 breast | KM12 colon
> 100 µM: all other assays above

C/C(=C\CCC1=CC(=O)OC1)CC[C@@H]1[C@H]2C(=O)CC(C)[C@@]3(C)CC[C@]1(C)[C@@]23C (stereo partly specified)
not listed: NCI-H460 lung | OVCAR-3 ovarian | HS 578T breast | SNB-19 CNS | NCI/ADR-RES ovarian | HCT-116 colon | NCI-H226 lung | OVCAR-5 ovarian | NCI-H522 lung | U251 CNS | HOP-92 NSCLC | ACHN renal | UO-31 renal | A498 renal | OVCAR-4 ovarian | SF-539 CNS | MDA-MB-435 | SK-MEL-2 melanoma
> 10 µM: all other assays above
